“And” between values parts separate entries of the source, which are not always exact repeats. Equal values may be shown once.
Test system: HOP-62 multicell spheroids with HUVEC/MSC, viability
Assay: Anticancer human tumor HOP-62 cell line growth inhibition [KRAS2];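 further: viability read after a week of compound exposure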;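 on viability, T/C: 100% = DMSO vehicle-treated spheroids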
Conditions: for viability, T/C: stronger effect = lower value
Method in brief: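 KRAS-mutant tumor cells were grown as spheroids with HUVEC endothelial cells and human MSCs as stroma. Targeted agents were tested alone and with KRAS pathway inhibitors. Doses started at or near clinical Cmax, or 10 microM, descending half-log.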

[1] = curve of first compound, second compound 0.1 µM
[2] = curve of first compound, second compound 0.316 µM
[3] = curve of first compound, second compound 1 µM
[4] = curve of first compound, second compound 3.16 µM
[5] = curve of first compound, second compound 10 µM
[6] = second compound 0.1 µM, first compound 0.0316 µM
[7] = second compound 0.1 µM, first compound 0.1 µM
[8] = second compound 0.1 µM, first compound 0.316 µM
[9] = second compound 0.1 µM, first compound 1 µM
[10] = second compound 0.1 µM, first compound 3.16 µM
[11] = second compound 0.1 µM, first compound 10 µM
[12] = second compound 0.316 µM, first compound 0.0316 µM
[13] = second compound 0.316 µM, first compound 0.1 µM
[14] = second compound 0.316 µM, first compound 0.316 µM
[15] = second compound 0.316 µM, first compound 1 µM
[16] = second compound 0.316 µM, first compound 3.16 µM
[17] = second compound 0.316 µM, first compound 10 µM
[18] = second compound 1 µM, first compound 0.0316 µM
[19] = second compound 1 µM, first compound 0.1 µM
[20] = second compound 1 µM, first compound 0.316 µM
[21] = second compound 1 µM, first compound 1 µM
[22] = second compound 1 µM, first compound 3.16 µM
[23] = second compound 1 µM, first compound 10 µM
[24] = second compound 3.16 µM, first compound 0.0316 µM
[25] = second compound 3.16 µM, first compound 0.1 µM
[26] = second compound 3.16 µM, first compound 0.316 µM
[27] = second compound 3.16 µM, first compound 1 µM
[28] = second compound 3.16 µM, first compound 3.16 µM
[29] = second compound 3.16 µM, first compound 10 µM
[30] = second compound 10 µM, first compound 0.0316 µM
[31] = second compound 10 µM, first compound 0.1 µM
[32] = second compound 10 µM, first compound 0.316 µM
[33] = second compound 10 µM, first compound 1 µM
[34] = second compound 10 µM, first compound 3.16 µM
[35] = second compound 10 µM, first compound 10 µM

Compound | IC50 [1] [nM] | IC50 [2] [nM] | IC50 [3] [nM] | IC50 [4] [nM] | viability, T/C [6] [%] | viability, T/C [7] [%] | viability, T/C [8] [%] | viability, T/C [9] [%] | viability, T/C [12] [%] | viability, T/C [13] [%] | viability, T/C [14] [%] | viability, T/C [15] [%] | viability, T/C [18] [%] | viability, T/C [19] [%] | viability, T/C [20] [%] | viability, T/C [21] [%] | viability, T/C [24] [%] | viability, T/C [25] [%] | viability, T/C [26] [%] | viability, T/C [27] [%] | further results
COc1cc(Nc2ncc3c(n2)-c2ccc(Cl)cc2C(c2c(F)cccc2OC)=NC3)ccc1C(=O)O + CNCc1ccccc1-c1csc(C(C)Nc2nc(C)nc3cc(OC)c(OC)cc23)c1 | 274 | 143 | 39.6 | < 31.6 | 69.4 | 57.7 | 44.5 | 43.8 | 59.5 | 54.2 | 42.4 | 37 | 51.4 | 46.3 | 37.3 | 34.6 | 15.7 | 0.89 | 10.6 | 4.93 | IC50 [5]: < 31.6 nM; viability, T/C [10]: 30.5%; viability, T/C [11]: 19.6%; viability, T/C [16]: 27.3%; viability, T/C [17]: 20.3%; viability, T/C [22]: 27.4%; viability, T/C [23]: 17.9%; viability, T/C [28]: 0.62%; viability, T/C [29]: 4.15%; viability, T/C [30]: 0.12%; viability, T/C [31]: 0.2%; viability, T/C [32]: 1.86%; viability, T/C [33]: 0.11%; viability, T/C [34]: 2.34%; viability, T/C [35]: 0.17%
CCN1CCN(Cc2ccc(Nc3ncc(F)c(-c4cc(F)c5nc(C)n(C(C)C)c5c4)n3)nc2)CC1 + C=CC(=O)N1CCN(c2nc(OCC3CCCN3C)nc3c2CCN(c2cccc4cccc(C)c24)C3)CC1CC#N | 58.2 | 17.2 | < 3.16 | < 3.16 | 54.7 | 43.8 | 42.9 | 31.6 | 51.3 | 38.4 | 34.1 | 30.1 | 37.3 | 37.1 | 37.8 | 23.8 | 1.14 | 0.26 | 0.17 | 0.19 | IC50 (curve of first compound, second compound 0.0316 µM): 422 nM; viability, T/C (second compound 0.0316 µM, first compound 0.00316 µM): 91.3%; viability, T/C (second compound 0.0316 µM, first compound 0.01 µM): 83.8%; viability, T/C (second compound 0.0316 µM, first compound 0.0316 µM): 64.1%; viability, T/C (second compound 0.0316 µM, first compound 0.1 µM): 65%; viability, T/C (second compound 0.0316 µM, first compound 0.316 µM): 52.4%; viability, T/C (second compound 0.0316 µM, first compound 1 µM): 42.9%; viability, T/C (second compound 0.1 µM, first compound 0.00316 µM): 65.6%; viability, T/C (second compound 0.1 µM, first compound 0.01 µM): 59.4%; viability, T/C (second compound 0.316 µM, first compound 0.00316 µM): 57.3%; viability, T/C (second compound 0.316 µM, first compound 0.01 µM): 51.4%; viability, T/C (second compound 1 µM, first compound 0.00316 µM): 39.4%; viability, T/C (second compound 1 µM, first compound 0.01 µM): 33.8%; viability, T/C (second compound 3.16 µM, first compound 0.00316 µM): 0.71%; viability, T/C (second compound 3.16 µM, first compound 0.01 µM): 1.27%
COC(=O)c1ccc2c(C(=Nc3ccc(N(C)C(=O)CN4CCN(C)CC4)cc3)c3ccccc3)c(O)[nH]c2c1 + CNCc1ccccc1-c1csc(C(C)Nc2nc(C)nc3cc(OC)c(OC)cc23)c1 | 246 | 49.3 | < 31.6 | < 31.6 | 68.1 | 64.7 | 40.1 | 34.6 | 48.3 | 54.6 | 35.6 | 31.4 | 43 | 32.2 | 38.6 | 29.8 | 12.6 | 0.12 | 0.09 | 0.09 | IC50 [5]: < 31.6 nM; viability, T/C [10]: 29.5%; viability, T/C [11]: 5.99%; viability, T/C [16]: 16.1%; viability, T/C [17]: 3.78%; viability, T/C [22]: 0.17%; viability, T/C [23]: 0.9%; viability, T/C [28]: 0.07%; viability, T/C [29]: 0.1%; viability, T/C [30]: 0.12%; viability, T/C [31]: 0.16%; viability, T/C [32]: 45.8%; viability, T/C [33]: 0.09%; viability, T/C [34]: 0.08%; viability, T/C [35]: 0.35%
CC(C)NCC(C(=O)N1CCN(c2ncnc3c2C(C)CC3O)CC1)c1ccc(Cl)cc1 (stereo not drawn) + COc1cc2nc(C)nc(NC(C)c3cc(N)cc(C(F)(F)F)c3)c2cc1OC1CCOC1 | 649 | 412 | 222 | 416 | 101 | 85.5 | 73 | 38.3 | 92.5 | 85.4 | 58.7 | 21.6 | 91 | 67.8 | 42.8 | 20 | 63.1 | 59.1 | 64 | 11.2 | IC50 [5]: < 31.6 nM; viability, T/C [10]: 9.92%; viability, T/C [11]: 6.97%; viability, T/C [16]: 7.46%; viability, T/C [17]: 6.79%; viability, T/C [22]: 5.76%; viability, T/C [23]: 3.7%; viability, T/C [28]: 6.02%; viability, T/C [29]: 5.53%; viability, T/C [30]: 49.1%; viability, T/C [31]: 33.8%; viability, T/C [32]: 23.7%; viability, T/C [33]: 10.7%; viability, T/C [34]: 8.2%; viability, T/C [35]: 5.6%
C=CC(=O)N1CCN(c2nc(=O)n(-c3c(C)ccnc3C(C)C)c3nc(-c4c(O)cccc4F)c(F)cc23)C(C)C1 (stereo not drawn) | – | – | – | – | – | – | – | – | – | – | – | – | – | – | – | – | – | – | – | – | viability, T/C (compound 3.16 µM): 65.2% [middle of 17 runs]; IC50 (compound alone, run of 07/19/2021): > 10000 nM and 4340 nM; IC50 (compound alone, run of 07/26/2021): 8.23 µM [middle of 5 runs]
